In US5952335A, “Fused polycyclic heterocycle derivatives” (Eisai Co., Ltd., priority 1995, dated 1999):
pIC50: −log10 of the molar value. Counter-ions that a name gives are not always drawn.

Test system: P388 cells
Assay: in vitro Antitumor Test on P388 Cells (Mouse Leukemic Cells), MTT, 3 days
Format: cell-based
Settings: 72 h, 3 days incubation
Method: P388 cells suspended in RPMI1640 medium (manufactured by Sanko Junyaku) containing 10% of fetal calf serum, (100 U/ml) of penicillin, 100 μg/ml of streptomycin, 5×10^-5 M of mercaptoethanol and 1 mM of sodium pyruvate were pipetted into a 96-well U-bottomed microplate at a ratio of 1.25×10^3 cells (0.1 ml) per well and incubated in a incubator containing 5% of carbon dioxide at 37° C. for a day. A compound of the present invention was dissolved in dimethyl sulfoxide to give a concentration of 10^-2 M and then diluted with the 10% fetal calf serum-containing RPMI1640 culture medium to give a concentration of 10^-4 or 10^-5 M. By taking this concentration as the maximal level, threefold serial dilution was effected with the use of the 10% fetal calf serum-containing RPMI1640 culture medium. Then these dilutions were added to the P388 incubation plate as described above at a ratio of 0.1 ml per well followed by incubation in an incubator containing 5% of carbon dioxide at 37° C. for 3 days. After the completion of the incubation, 0.05 ml/well of a 3.3 mg/ml solution of MTT [3-(4,5-dimethylthiazol-2-yl)-2,5-diphenyltetrazolium bromide] was added thereto and the incubation was continued for additional 2 hours. The microplate was centrifuged and the supernatant was aspirated off from each well. Then the formazan thus formed was dissolved in 0.1 ml of dimethyl sulfoxide and the absorbance thereof at 540 nm measured with a microplate reader was taken as an indication of the viable cell count. In accordance with the following formula, the inhibitory ratio was calculated and the 50% inhibitory concentration (IC50) of the test compound was determined: [formula] wherein T means the absorbance of a well containing the test compound; and C means the absorbance of a well containing no test compound.

| pIC50 | SMILES |
| --- | --- |
| 8.77 | CN(C)CCn1c(=O)c2cccc3c4c5c(ccc4n(c1=O)c23)C(O)CCC5 (single isomer, unassigned; (+)) [Example 6, (+)-5-[2-(Dimethylamino)ethyl]-10-hydroxy-10,11,12,13-tetrahydro-4H-benzo[c]pyrimido[5,6,1-jk]carbazole-4,6(5H)-dione] |
| 6.85 | CN(C)CCn1c(=O)c2cccc3c4c5c(ccc4n(c1=O)c23)C(=O)CCO5 [Example 15, 2,3-Dihydro-9-[2-(dimethylamino)ethyl]-4H,8H-pyrano[3,2-c]pyrimido[5,6,1-jk]carbazole-4,8,10(9H)-trione hydrochloride] |
| 6.96 | CN(C)CCn1c(=O)c2cccc3c4c5occc(=O)c5ccc4n(c1=O)c23 [Example 16, 9-[2-(Dimethylamino)ethyl]-4H,8H-pyrano[3,2-c]pyrimido [5,6,1-jk]carbazole-4,8,10(9H)-trione hydrochloride] |
| 7.12 | CN(C)CCn1c(=O)c2cccc3c4ccc5ccccc5c4n(c1=O)c23 [Example 18, 2-[2-(Dimethylamino)ethyl]-1H-benzo[a]pyrimido[5,6,1-jk]carbazole-1,3(2H)-dione hydrochloride] |
| 6.66 | CN(C)CCCn1c(=O)c2cccc3c4c5ccccc5ccc4n(c1=O)c23 [Example 19, 5-[3-(Dimethylamino)propyl]-4H-benzo[c]pyrimido[5,6,1-jk]carbazole-4,6(5H)-dione hydrochloride] |
| 6.54 | COc1ccc2c(ccc3c2c2cccc4c(=O)n(CCN(C)C)c(=O)n3c42)c1 [Example 22, 5-[2-(Dimethylamino)ethyl]-11-methoxy-4H-benzo[c]pyrimido [5,6,1-jk]carbazole-4,6(5H)-dione hydrochloride] |
| 6.49 | CN(C)CCn1c(=O)c2c3ccccc3nc3c4ccccc4n(c1=O)c32 [Example 24, 2-[2-(Dimethylamino)ethyl]-1H-benzo[b]pyrimido[1,6,5-lm]-4-azacarbazole-1,3(2H)-dione dihydrochloride] |
| 7.15 | CN(C)CCn1c(=O)c2cccc3c4c5c(=O)[nH]ccc5ccc4n(c1=O)c23 [Example 29, 9-[2-(Dimethylamino)ethyl]-8H-pyrido[4,3-c]pyrimido[5,6,1-jk]carbazole-1,8,10(2H,9H)-trione hydrochloride] |
| 7.49 | CN(C)CCn1c(=O)c2cccc3c4c5ccccc5ncc4n(c1=O)c23 [Example 30, 5-[2-(Dimethylamino)ethyl]-4H-quino[4',3'-4,5]pyrrolo [3,2,1-ij]quinazoline-4,6(5H)-dione dihydrochloride] |
| 6.96 | CN(C)CCn1c(=O)c2cc(N)cc3c2n(c1=O)-c1cc2ccccc2cc1O3 [Example 31, 5-Amino-2-[2-(dimethylamino)ethyl]-1H-benzo[b]pyrimido [5,6,1-kl]phenoxazine-1,3(2H)-dione dihydrochloride] |
| 6.49 | CN(C)CCn1c(=O)c2cccc3c4c5ccc(Br)cc5ccc4n(c1=O)c23 [Example 41, 11-Bromo-5-[2-(dimethylamino)ethyl]-4H-benzo[c]pyrimido [5,6,1-jk]carbazole-4,6(5H)-dione hydrochloride] |
| 6.80 | COc1cc2c(=O)n(CCN(C)C)c(=O)n3c4ccc5ccccc5c4c(c1)c23 [Example 45, 5-[2-(Dimethylamino)ethyl]-2-methoxy-4H-benzo[c]pyrimido [5,6,1-jk]carbazole-4,6(5H)-dione hydrochloride] |
| 6.60 | CN(C)CCn1c(=O)c2cc(N)cc3c4c5ccccc5ccc4n(c1=O)c23 [Example 47, 2-Amino-5-[2-(dimethylamino)ethyl]-4H-benzo[c]pyrimido [5,6,1-jk]carbazole-4,6(5H)-dione dihydrochloride] |

Second part, the compound before the results:

| SMILES | pIC50 |
| --- | --- |
| CN(C)CCn1c(=O)c2cccc3c4c5c(ccc4n(c1=O)c23)C(O)CCC5 (centres unmarked) [Example 5, 5-[2-(Dimethylamino)ethyl]-10-hydroxy-10,11,12,13-tetrahydro-4H-benzo[c]pyrimido[5,6,1-jk]carbazole-4,6(5H)-dione] | 8.32 |
| CN(C)CCn1c(=O)c2cccc3c4c5c(ccc4n(c1=O)c23)C(O)CO5 (centres unmarked) [Example 9, 2,3-Dihydro-8-[2-(dimethylamino)ethyl]-3-hydroxy-7H-furo[3,2-c]pyrimido[5,6,1-jk]carbazole-7,9(8H)-dione] | 8.17 |
| CN(C)CCn1c(=O)c2cccc3c4ccc5sccc5c4n(c1=O)c23 [Example 14, 2-[2-(Dimethylamino)ethyl]-1H-pyrimido[5,6,1-jk]thieno[3,2-a]carbazole-1,3(2H)-dione hydrochloride] | 7.13 |
| CN(C)CCn1c(=O)c2cccc3c4ccc5occc5c4n(c1=O)c23 [Example 17, 2-[2-(Dimethylamino)ethyl]-1H-furo[3,2-a]pyrimido[5,6,1-jk]carbazole-1,3(2H)-dione hydrochloride] | 7.47 |
| COc1cccc2c1ccc1c2c2cccc3c(=O)n(CCN(C)C)c(=O)n1c32 [Example 23, 5-[2-(Dimethylamino)ethyl]-10-methoxy-4H-benzo[c]pyrimido[5,6,1-jk]carbazole-4,6(5H)-dione hydrochloride] | 7.09 |
| CN(C)CCn1c(=O)c2cccc3c4c5c(ccc4n(c1=O)c23)C(=O)OCC5 [Example 25, 1,2-Dihydro-9-[2-(dimethylamino)ethyl]-4H,8H-pyrano[3,4-c]pyrimido[5,6,1-jk]carbazole-4,8,10(9H)-trione hydrochloride] | 7.55 |
| CN(C)CCn1c(=O)c2cc([N+](=O)[O-])cc3c2n(c1=O)-c1cc2ccccc2cc1O3 [Example 27, 2-[2-(Dimethylamino)ethyl]-5-nitro-1H-benzo[b]pyrimido [5,6,1-kl]phenoxazine-1,3(2H)-dione hydrochloride] | 6.31 |
| CN(C)CCn1c(=O)c2cc(Cl)cc3c4c5ccccc5ccc4n(c1=O)c23 [Example 28, 2-Chloro-5-[2-(dimethylamino)ethyl]-4H-benzo[c]pyrimido [5,6,1-jk]carbazole-4,6(5H)-dione hydrochloride] | 7.15 |
| COc1cccc2ccc3c(c4cccc5c(=O)n(CCN(C)C)c(=O)n3c54)c12 [Example 32, 5-[2-(Dimethylamino)ethyl]-13-methoxy-4H-benzo[c]pyrimido [5,6,1-jk]carbazole-4,6(5H)-dione hydrochloride] | 6.39 |
| CN(C)CCCCn1c(=O)c2cccc3c4c5ccccc5ccc4n(c1=O)c23 [Example 34, 5-[4-(Dimethylamino)butyl]-4H-benzo[c]pyrimido[5,6,1-jk]carbazole-4,6(5H)-dione hydrochloride] | 6.35 |
| CN(C)CCn1c(=O)c2cccc3c4c5cccnc5ccc4n(c1=O)c23 [Example 36, 9-[2-(Dimethylamino)ethyl]-8H-pyrido[2,3-c]pyrimido[5,6,1-jk]carbazole-8,10(9H)-dione dihydrochloride] | 7.85 |
| CN(C)CCn1c(=O)c2cc([N+](=O)[O-])cc3c4c5ccccc5ccc4n(c1=O)c23 [Example 37, 5-[2-(Dimethylamino)ethyl]-2-nitro-4H-benzo[c]pyrimido [5,6,1-jk]carbazole-4,6(5H)-dione hydrochloride] | 6.42 |
| Cc1cc2c(=O)n(CCN(C)C)c(=O)n3c4ccc5ccccc5c4c(c1)c23 [Example 38, 5-[2-(Dimethylamino)ethyl]-2-methyl-4H-benzo[c]pyrimido [5,6,1-jk]carbazole-4,6(5H)-dione hydrochloride] | 6.96 |
| CN(C)CCn1c(=O)c2cccc3c4c5c(ccc4n(c1=O)c23)C(=O)NCC5 [Example 39, 1,2-Dihydro-9-[2-(dimethylamino)ethyl]-8H-pyrido[3,4-c]pyrimido[5,6,1-jk]carbazole-4,8,10(3H,9H)-trione hydrochloride] | 8.11 |
| CN(C)CCn1c(=O)c2cccc3c4c5c(ccc4n(c1=O)c23)OCO5 [Example 40, 8-[2-(Dimethylamino)ethyl]-7H-1,3-dioxolo[4,5-c]pyrimido [5,6,1-jk]carbazole-7,9(8H)-dione hydrochloride] | 6.66 |
| CN(C)CCn1c(=O)c2cccc3c4cc5ccccc5cc4n(c1=O)c23 [Example 42, 2-[2-(Dimethylamino)ethyl]-1H-benzo[b]pyrimido[5,6,1-jk]carbazole-1,3(2H)-dione hydrochloride] | 7.31 |
| CN(C)CCn1c(=O)c2cccc3c4c5c(ccc4n(c1=O)c23)CCCC5 [Example 43, 5-[2-(Dimethylamino)ethyl]-10,11,12,13-tetrahydro-4H-benzo[b]pyrimido[5,6,1-jk]carbazole-4,6(5H)-dione hydrochloride] | 7.18 |
| CN(C)CCn1c(=O)c2cccc3c4c5c(ccc4n(c1=O)c23)C(=O)C(C)(C)CC5 [Example 44, 12,13-Dihydro-11,11-dimethyl-5-[2-(dimethylamino)ethyl]-4H-benzo[c]pyrimido[5,6,1-jk]carbazole-4,6,10(5H,11H)-trione hydrochloride] | 6.44 |
| CN(C)CCn1c(=O)c2cccc3c4c5ccc(O)cc5ccc4n(c1=O)c23 [Example 46, 5-[2-(Dimethylamino)ethyl]-11-hydroxy-4H-benzo[c]pyrimido [5,6,1-jk]carbazole-4,6(5H)-dione hydrochloride] | 7.11 |
